The results in this text go back to patent US8652483B2, “Viral infection enhancing peptide” (priority 2010, dated 2014).

Where “and” joins values, the source holds several entries; their conditions need not be identical. Equal values may be shown once. No end group written: not given here.

In data set [1] the test system is R5 HIV-1 (CCR5 tropic HIV-1 NL4-3 92TH014-2). The data set can be described thus: HIV-1 infection of TZM-bl cells, R5 virus. The format is cell-based. The settings on record: for enhancement of HIV infection: 1 ng p24 virus, 100 μg/ml peptide; for enhancers of HIV infection at the lowest viral dose: 0.01 ng p24 virus.
Data set [2] in a line: Congo Red (CR) staining assay. The format is physicochemical. Particulars: DMSO stock freshly diluted in PBS. The protocol: (§1) To investigate if SW1010 (like PAP248-286) forms insoluble aggregates, in particular amyloid like material, the reactivity of a freshly prepared SW1010 peptide solution to the amyloid specific dye Thioflavin T (ThT) was analyzed. […] Further evidence that SW1010 forms amyloid like material was derived by staining with another amyloid specific dye, Congo Red (CR) (Münch et al., 2007). […] Thus, when used to enhance retroviral infection or transduction efficiencies (FIG. 1 F), the peptide of the invention provides an important advantage over SEVI amyloid fibrils that have to be generated by agitating the monomeric PAP248-286 by several hours or days on a table rotator (Münch et al., 2007; Wurm et al., 2009).
(§2) Similarly, all SW1010 derivatives were analyzed for ThT and CR reactivity.
To test if SWB is soluble in solvents other than DMSO and can form virus enhancing amyloid like material upon diluting in PBS, the inventors resuspended SWB powder in various solvents. […] Since acetic acid stocks were highly toxic for cell culture at higher concentrations, all following SWB stock solutions were then prepared by dissolving the peptide in less cytotoxic DMSO. In all subsequent experiments the concentrations of DMSO in the presence of virus or cells were lower than 1%, preferably between about 0.2 and about 1%.

A further data set deals with Jurkat T cells. Description: Cytotoxicity of SWB. Type of data set: cell-based.
Another data set relates to CEM-M7 cells. The data set can be described thus: Cytotoxicity of SWB. The format is cell-based.
The test system of data set [3] is primary peripheral blood mononuclear cells (PBMC). Description: Cytotoxicity of SWB. The format is cell-based.
A further data set deals with KG-1 cells. Description: Cytotoxicity of SWB. The format is cell-based, human.
Another data set in a line: Solubility limit in DMSO. Type of data set: physicochemical. Particulars: read-out: solubility limit in DMSO (concentrations above were not completely dissolved).
Data set [4] can be described thus: Thioflavin T (ThT) fluorescence. The format is physicochemical. The settings on record: DMSO stock freshly diluted in PBS. The procedure: as §1, §2

On to “SWNL43: peptide corresponding to SW1010 of the HIV-1 clone NL4-3 (TITLPCRIKQFINMWQEVG; SW-peptide derived from peptide gp120 of HIV-1 strain MN (Gurgo et al., 1988))”, for which the “enhancement of HIV infection” value in data set [1] is on record as “weak or no effects”. In addition, the “Congo Red (CR) staining” value in data set [2] is given as “did react with CR to a lesser extend”.

Take QCKIKQIINMWQ [SWB]: the toxic effects result (in the data set with Jurkat T cells; in the data set on CEM-M7 cells; in data set [3]; with KG-1 cells) was “no toxic effects” in each case. For the same substance, the solubility in the data set “Solubility limit in DMSO” was 25000 µM and 38000 µg/mL.

As to “SWCON: peptide derived from a SW1010 homologous consensus sequence of all HIV-1 M strains (TITLPCRIKQIINMWQGVG; SW-peptide derived from peptide gp120 of HIV-1 strain MN (Gurgo et al., 1988))”, in data set [1], the “enhancers of HIV infection at the lowest viral dose” value (“enhancers of HIV infection” below) is reported as “most potent enhancers”. In addition, the “Congo Red (CR) staining” value in data set [2] is on record as “specific staining”. Further, the ThT fluorescence entry in data set [4] was “increases fluorescence intensities”.

Regarding “SW1014: N-terminal half of SW1010 (QIINMWQEVG; SW-peptide derived from peptide gp120 of HIV-1 strain MN (Gurgo et al., 1988))”, the “enhancement of HIV infection” value in data set [1] is listed as “weak or no effects”. Moreover, the “Congo Red (CR) staining” value in data set [2] is “specific staining”. Besides, in data set [4], the ThT fluorescence result is on record as “increases fluorescence intensities”.

As to “SWC: variant of SW1010 of different length (KIKQIINMWQ; SW-peptide derived from peptide gp120 of HIV-1 strain MN (Gurgo et al., 1988))”, in data set [1], the “enhancers of HIV infection” value is given as “most potent enhancers”. The “Congo Red (CR) staining” value in data set [2] is given as “specific staining”.

Consider “SWE: variant of SW1010 of different length (QCKIKQIINMW; SW-peptide derived from peptide gp120 of HIV-1 strain MN (Gurgo et al., 1988))”, for which, in data set [1], the “enhancers of HIV infection” value is “most potent enhancers”. The “Congo Red (CR) staining” value in data set [2] is “specific staining”. Besides, the ThT fluorescence result in data set [4] was “increases fluorescence intensities”.
